“And” between values parts separate entries of the source, which are not always exact repeats. Identical values can stand only once.
How the values were obtained:
Conditions in all cases: treatment: drug alone; 5 days
A498 [1] = experiment: AUC of dose-response viability curve, drug alone (arbitrary (AUC of normalised viability)); higher = less growth inhibition
Protocol: (§1)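 Primary HTS: 8 RCC cell lines treated with 8 doses (up to 10 uM) of each library drug alone for 5 days; viability read by CellTiter-Glo and normalised to DMSO. GI50 was fitted with XLfit (4-parameter), AUC is the area under the dose-response curve, and minimum viability is the lowest fraction of DMSO viability across doses.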

ACHN [2] = experiment: as above
Protocol: as §1

CAKI-1 [3] = experiment: as above
Protocol: as §1

TK-10 [4] = experiment: as above
Protocol: as §1

786-O [5] = experiment: as above
Protocol: as §1

769-P [6] = experiment: as above
Protocol: as §1

SN12C [7] = experiment: as above
Protocol: as §1

UO-31 [8] = experiment: as above
Protocol: as §1

A498 [9] = experiment: GI50, drug alone; higher = less potent
Protocol: as §1

ACHN [10] = experiment: GI50, drug alone; higher = less potent
Protocol: as §1

CAKI-1 [11] = experiment: GI50, drug alone; higher = less potent
Protocol: as §1

TK-10 [12] = experiment: GI50, drug alone; higher = less potent
Protocol: as §1

786-O [13] = experiment: GI50, drug alone; higher = less potent
Protocol: as §1

769-P [14] = experiment: GI50, drug alone; higher = less potent
Protocol: as §1

SN12C [15] = experiment: GI50, drug alone; higher = less potent
Protocol: as §1

UO-31 [16] = experiment: GI50, drug alone; higher = less potent
Protocol: as §1

A498 [17] = experiment: minimum viability across doses, drug alone, relative to DMSO (fraction); higher = less growth inhibition
Protocol: as §1

ACHN [18] = experiment: as above
Protocol: as §1

TK-10 [19] = experiment: as above
Protocol: as §1

786-O [20] = experiment: as above
Protocol: as §1

769-P [21] = experiment: as above
Protocol: as §1

UO-31 [22] = experiment: as above
Protocol: as §1

CAKI-1 [23] = experiment: as above
Protocol: as §1

SN12C [24] = experiment: as above
Protocol: as §1

GI50, drug alone (ACHN [10]) | GI50, drug alone (786-O [13]) | Structure (SMILES) | AUC of dose-response viability curve (A498 [1]) | AUC of dose-response viability curve (ACHN [2]) | AUC of dose-response viability curve (CAKI-1 [3]) | AUC of dose-response viability curve (TK-10 [4]) | AUC of dose-response viability curve (786-O [5]) | AUC of dose-response viability curve (769-P [6]) | AUC of dose-response viability curve (SN12C [7]) | AUC of dose-response viability curve (UO-31 [8]) | GI50, drug alone (A498 [9]) | GI50, drug alone (CAKI-1 [11]) | GI50, drug alone (TK-10 [12]) | GI50, drug alone (769-P [14]) | GI50, drug alone (SN12C [15]) | GI50, drug alone (UO-31 [16]) | minimum viability across doses (A498 [17]) | minimum viability across doses (ACHN [18]) | minimum viability across doses (TK-10 [19]) | minimum viability across doses (786-O [20]) | minimum viability across doses (769-P [21]) | minimum viability across doses (UO-31 [22]) | minimum viability across doses (CAKI-1 [23]) | minimum viability across doses (SN12C [24])
394 nM and 247 nM | 1630 nM and 1100 nM | Cc1cnc(Nc2ccc(N3CCN(C)CC3)cc2)nc1Nc1cccc(S(=O)(=O)NC(C)(C)C)c1 | 3.84 and 4.19 | 2.1 and 1.82 | 2.2 and 2.24 | 2.15 and 1.95 | 2.78 and 2.6 | 2.9 and 2.62 | 2.78 and 2.61 | 3.84 and 3.52 | 8980 nM and 9200 nM | 523 nM and 494 nM | 596 nM and 364 nM | 3640 nM and 1860 nM | 2190 nM and 1470 nM | 3060 nM and 2230 nM | 0.19 and 0.161 | 0.00241 and 0.0043 | 0.00169 and 0.00288 | 0.011 and 0.00951 | 0.0716 and 0.0287 | 0.0126 and 0.00902 |  | 
2670 nM | > 10000 nM | CN(C)Cc1cccc(N/C(=C2\C(=O)Nc3cc(C(=O)N(C)C)ccc32)c2ccccc2)c1 | 4.62 | 2.8 | 3.08 | 2.94 | 2.81 | 3.43 | 3.05 | 4.64 | > 10000 nM | 4000 nM | 9600 nM | > 10000 nM | 8690 nM | 9910 nM | 1.14 | 0.127 | 0.481 | 0.524 | 0.867 | 0.605 | 0.12 | 0.382
560 nM | 247 nM | O=C(NC[C@H](O)CO)c1ccncc1Nc1ccc(I)cc1F | 4.02 | 2.11 | 2.27 | 2.12 | 1.84 | 2.44 | 2.62 | 4.06 | > 10000 nM | 654 nM | 715 nM | 1140 nM | 5970 nM | 9220 nM | 0.687 | 0.273 | 0.282 | 0.292 | 0.268 | 0.367 | 0.203 | 0.409
667 nM | 879 nM | Cc1n[nH]c2ccc(-c3cncc(OC[C@@H](N)Cc4ccccc4)c3)cc12 | 2.46 | 2.28 | 2.6 | 2.54 | 2.19 | 2.74 | 2.55 | 2.35 | 1160 nM | 1220 nM | 1390 nM | 2010 nM | 1430 nM | 887 nM | 0.0113 | 0.00528 | 0.141 | 0.00649 | 0.0141 | 0.00834 | 0.073 | 0.00861
327 nM | 936 nM | Cc1ccc(C(=O)Nc2ccc(CN3CCN(C)CC3)c(C(F)(F)F)c2)cc1C#Cc1cnc2cccnn12 |  |  |  |  |  |  |  |  | 2090 nM | 486 nM | 531 nM | 2210 nM | 942 nM | 1250 nM |  |  |  |  |  |  |  | 
> 10000 nM | > 10000 nM | CCS(=O)(=O)N1CC(CC#N)(n2cc(-c3ncnc4[nH]ccc34)cn2)C1 | 4.43 | 3.17 | 3.58 | 3.09 | 3.07 | 3.62 | 3.36 | 4.72 | > 10000 nM | > 10000 nM | > 10000 nM | > 10000 nM | > 10000 nM | > 10000 nM | 1.07 | 0.758 | 0.817 | 0.619 | 0.953 | 1.11 | 0.926 | 0.885
> 10000 nM | > 10000 nM | Nc1nccc(Oc2ccc(NC(=O)c3c[nH]cc(-c4ccc(F)cc4)c3=O)cc2F)c1Cl | 4.08 | 3.5 | 3.45 | 2.97 | 2.73 | 3.52 | 3.25 | 4.74 | > 10000 nM | > 10000 nM | > 10000 nM | > 10000 nM | > 10000 nM | 3800 nM | 0.973 | 0.649 | 0.689 | 0.607 | 0.951 | 0.00247 | 0.716 | 0.711
5910 nM | 631 nM | NC1(Cc2ccc(Cl)cc2)CCN(c2ncnc3[nH]ccc23)CC1 | 4.01 | 3.38 | 3.21 | 3.01 | 2.17 | 3.31 | 3.08 | 4.18 | > 10000 nM | > 10000 nM | 4560 nM | 8760 nM | 7350 nM | 3800 nM | 0.905 | 0.287 | 0.284 | 0.0631 | 0.432 | 0.00579 | 0.348 | 0.431
1720 nM | > 10000 nM | CN(C[C@@H]1COCCO1)S(=O)(=O)Nc1ccc2ccc3ncc(-c4cnn(C)c4)cc3c(=O)c2c1 [MK-2461] | 7.41 | 2.6 | 2.48 | 2.8 | 5.52 | 3.6 | 3.09 |  | > 10000 nM | 1120 nM | > 10000 nM | > 10000 nM | > 10000 nM | > 10000 nM | 0.968 | 0.217 | 0.649 | 0.653 | 0.772 | 1.03 | 0.0916 | 0.727
9.67 nM | 6.39 nM | Nc1ccc(-c2ccc3ncc4ccc(=O)n(-c5cccc(C(F)(F)F)c5)c4c3c2)cn1 [Torin 2] | 1.25 | 0.678 | 1.07 | 0.982 | 0.512 | 1.2 | 1.02 | 0.591 | 35.4 nM | 32.2 nM |  | 39.8 nM | 20.3 nM | 12 nM | 0.0258 | 0.0442 | 0.0151 | 0.00282 | 0.0587 | 0.0112 | 0.0161 | 0.0362

From the supplement of paper PMC8149375
